According to patent US20230141863A1, “Small Molecule Inhibitors Targeting the Sodium Channel Tamoxifen Receptor and Uses Thereof” (Northwestern University, priority 2021, published 2023):
pIC50: −log10 of the molar value. Read-outs that look alike come from different tables or passages of the source.

How the values were obtained:
[1] = biological target: T1, Nav1.7 D1458A in domain III (Homo sapiens, UniProt Q15858, D1458A); assay: Voltage clamp of Nav1.7 with alanine substitution in domain III; type: cell-based
T1 construct: expressed in transfected cells
Method: While no clear drug-receptor interactions were determined within Siteout, the S6 E220 side chains formed hydrogen bond interactions with the ether and amine moieties of the ND-Tam molecules found at Sitein. […] After structural alignment of the crystalized NavMs-Tam complex with the cryo EM Nav1.7+b1+b2 channel coordinates, the S6 side chain hydroxyl in DII (S969) and the carboxyl side chains in DIII (E1458) and DIV (D1761) observed in the human channel were nearly superimposable with E220 of the prokaryotic Nav subunits. In addition, the distances from the drug ether and amines were within acceptable distances (2.8-3.1 Å) for hydrogen bond formation for all three site chains (FIG. 2B). […]
Plasmids encoding the human version of channels Nav1.1, 1.6, and 1.7 were co-transfected with TRES GFP into HEK cell lines for whole-cell voltage clamp studies (American Type Culture Collection). […] Plasma membrane currents were recorded using borosilicate glass electrodes polished to resistances of […]. Sodium currents conducted by heterologously expressed Navs were recorded using the following solutions (in mM). […] Endogenous DRG sodium currents were recorded using an intracellular solution consisting of 70 CsCl, 70 CsF, 2 EGTA, 5 HEPES, and 5 NaCl; the pH was adjusted to 7.4 with CsOH. […]

[2] = tested on: T2, endogenous voltage-gated sodium channels expressed in murine DRG neurons; assay: Whole cell voltage clamp of endogenous sodium currents (INa) in cultured DRG sensory neurons; type: cell-based, mouse; settings: −40 mV holding potential, read-out: ND-Tam potency against DRG INa (IC50)
T2 construct: other: DRG neurons, −40 mV holding potential

[3] = tested on: T3, endogenous voltage-gated sodium channels expressed in murine DRG neurons; assay: as above; type: cell-based, mouse; settings: −60 mV holding potential, read-out: ND-Tam potency against DRG INa (IC50)
T3 construct: other: waiting for 5 minutes after removal; ND-Tam potency against DRG INa (IC50); other: DRG neurons, −60 mV holding potential; other: 3 μM ND-Tam treatment; other: DR

T1 sequence (Q15858 whole entry D1458A, the tested form may be a part): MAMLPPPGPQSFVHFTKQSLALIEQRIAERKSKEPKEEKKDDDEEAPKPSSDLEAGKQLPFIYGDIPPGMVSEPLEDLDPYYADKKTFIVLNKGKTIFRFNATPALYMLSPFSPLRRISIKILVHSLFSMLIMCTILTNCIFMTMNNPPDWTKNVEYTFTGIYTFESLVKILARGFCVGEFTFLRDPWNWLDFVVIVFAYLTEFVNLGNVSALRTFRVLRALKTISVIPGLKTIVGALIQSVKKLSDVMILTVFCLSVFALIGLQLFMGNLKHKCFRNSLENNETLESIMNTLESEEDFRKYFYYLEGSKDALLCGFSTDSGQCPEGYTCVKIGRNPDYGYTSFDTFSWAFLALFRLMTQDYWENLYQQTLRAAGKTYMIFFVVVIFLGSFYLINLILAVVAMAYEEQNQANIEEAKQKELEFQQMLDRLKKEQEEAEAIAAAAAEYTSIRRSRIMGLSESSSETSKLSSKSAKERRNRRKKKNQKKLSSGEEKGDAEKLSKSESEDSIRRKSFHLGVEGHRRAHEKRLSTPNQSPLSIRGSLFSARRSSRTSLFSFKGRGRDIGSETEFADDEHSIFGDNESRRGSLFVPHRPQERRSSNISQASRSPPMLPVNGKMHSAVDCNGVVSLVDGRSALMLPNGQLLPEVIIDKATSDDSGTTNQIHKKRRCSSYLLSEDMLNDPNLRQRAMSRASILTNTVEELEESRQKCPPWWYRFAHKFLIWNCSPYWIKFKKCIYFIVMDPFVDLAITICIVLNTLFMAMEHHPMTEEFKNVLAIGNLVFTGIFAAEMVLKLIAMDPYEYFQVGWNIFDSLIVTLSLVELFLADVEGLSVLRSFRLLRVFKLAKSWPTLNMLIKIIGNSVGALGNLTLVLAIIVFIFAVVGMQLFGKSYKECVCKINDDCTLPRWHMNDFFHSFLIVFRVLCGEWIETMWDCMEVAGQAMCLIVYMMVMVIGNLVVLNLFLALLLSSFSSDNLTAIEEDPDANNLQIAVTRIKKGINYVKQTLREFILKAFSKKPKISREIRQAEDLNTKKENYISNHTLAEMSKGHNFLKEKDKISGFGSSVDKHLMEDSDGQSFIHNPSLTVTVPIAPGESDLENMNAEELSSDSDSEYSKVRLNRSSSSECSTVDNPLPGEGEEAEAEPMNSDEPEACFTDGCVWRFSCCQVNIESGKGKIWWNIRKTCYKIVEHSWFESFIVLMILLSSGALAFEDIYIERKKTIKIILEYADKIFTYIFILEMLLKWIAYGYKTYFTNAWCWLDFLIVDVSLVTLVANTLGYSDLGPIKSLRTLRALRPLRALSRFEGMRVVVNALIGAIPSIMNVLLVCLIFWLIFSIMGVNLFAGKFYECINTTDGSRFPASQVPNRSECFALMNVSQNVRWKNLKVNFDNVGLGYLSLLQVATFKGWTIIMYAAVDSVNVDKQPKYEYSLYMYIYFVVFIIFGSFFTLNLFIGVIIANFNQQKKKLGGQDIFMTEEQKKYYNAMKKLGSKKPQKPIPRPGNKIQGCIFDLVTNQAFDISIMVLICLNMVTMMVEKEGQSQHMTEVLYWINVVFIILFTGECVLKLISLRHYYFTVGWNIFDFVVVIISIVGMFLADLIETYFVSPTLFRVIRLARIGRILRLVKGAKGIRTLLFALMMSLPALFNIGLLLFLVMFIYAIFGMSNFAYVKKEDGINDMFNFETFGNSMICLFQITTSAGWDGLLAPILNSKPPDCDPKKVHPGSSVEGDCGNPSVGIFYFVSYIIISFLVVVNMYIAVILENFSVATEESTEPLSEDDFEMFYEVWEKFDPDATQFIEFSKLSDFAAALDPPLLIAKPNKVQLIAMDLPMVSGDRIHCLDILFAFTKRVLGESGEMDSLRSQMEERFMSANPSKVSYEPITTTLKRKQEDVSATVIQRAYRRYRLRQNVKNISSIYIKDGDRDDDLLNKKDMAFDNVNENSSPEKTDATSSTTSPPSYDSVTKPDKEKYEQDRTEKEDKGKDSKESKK

slope of concentration-dependence [1]: 2.2 | pIC50 [2]: 8.41 | pIC50 [3]: 6.95
Compound: CC/C(=C(\c1ccccc1)c1ccc(OCCNC)cc1)c1ccccc1 [ND-Tam, 2-[4-[(Z)-1,2-diphenylbut-1-enyl]phenoxy]-N-methylethanamine]
